Results on 16 molecules are retold here after PMC4130903 (Bioorganic & medicinal chemistry letters, 2014).

Like-named read-outs stand apart in the source and are kept apart here.

Test [1] has as its target T1, NTSR1 (Homo sapiens, UniProt P30989). Type of test: cell-based. The following applies: for Emax: % of the response obtained with the NT(8–13) peptide, average ± SEM, n = 4; for NTSR1 activity (in words): Ca2+ mobilization assay. On the technique in general: A change in cytosolic calcium serves as a functional read-out for many receptors and channels.
The target of test [2] is T1, NTSR1. To be noted: Wyeth compound 1, literature value; cited from earlier work.
Test [3] has as its target T1, NTSR1. To be noted: NTSR1 antagonists; cited from earlier work.
Test [4] addresses T1, NTSR1. The test is described as follows: Ca2+ assay in the presence and absence of antagonist 5. The following applies: in the presence of antagonist 5 (SR 48692); Figure S1. Type of test: cell-based.

T1 sequence (P30989 whole entry, species assumed): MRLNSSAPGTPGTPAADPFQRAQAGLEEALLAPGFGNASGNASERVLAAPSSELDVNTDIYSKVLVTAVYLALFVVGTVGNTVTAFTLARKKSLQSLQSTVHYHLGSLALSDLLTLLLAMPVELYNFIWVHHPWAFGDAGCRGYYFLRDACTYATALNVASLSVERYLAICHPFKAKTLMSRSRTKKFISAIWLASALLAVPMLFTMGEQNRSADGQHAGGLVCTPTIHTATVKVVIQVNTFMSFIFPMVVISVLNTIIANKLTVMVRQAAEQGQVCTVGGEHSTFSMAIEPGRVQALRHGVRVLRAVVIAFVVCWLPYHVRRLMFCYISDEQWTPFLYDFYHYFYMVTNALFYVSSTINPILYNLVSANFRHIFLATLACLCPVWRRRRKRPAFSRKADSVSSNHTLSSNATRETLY

Consider `CC(C)C[C@@H](NC(=O)Cn1ccc2cc(NS(=O)(=O)c3cccc4cccnc34)ccc21)C(=O)O` [Compound 1, reference compound], for which, in test [1], the EC50 was greater than 100 µM. In addition, in test [2], the Emax was 17%. As for `COc1cccc(OC)c1-c1cc(C(=O)NC2(C(=O)O)C3CC4CC(C3)CC2C4)nn1-c1ccnc2cc(Cl)ccc12` (stereo not drawn) [Compound 5], in test [3], the Binding affinity entry is on record as “low nanomolar range”.

As for `COc1cccc(OC)c1-c1cc(C(=O)NC2(C(=O)O)C3CC4CC(C3)CC2C4)nn1-c1ccc(C(=O)N(C)CCCN(C)C)cc1C(C)C` (stereo not drawn) [Compound 6], the Binding affinity result in test [3] was “low nanomolar range”.

On to `CC(C)C[C@H](NC(=O)Cn1ccc2cc(NS(=O)(=O)c3cccc4cccnc34)ccc21)C(=O)O` [Compound 7], for which the “NTSR1 stimulatory activity in the presence of antagonist 5” value (shortened to “NTSR1 stimulatory activity”) in test [4] is recorded as “abolished”.

As to `CC(C)C[C@H](NC(=O)Cn1ccc2cc(-c3cnc4ccccc4c3)ccc21)C(=O)O` [Compound 8], in test [4], the “NTSR1 stimulatory activity” value is “abolished”. This molecule also showed an Emax in test [1] of 100%. Besides, the “Potency improvement compared to parent compound 1” value in test [1] (EC50 versus compound 1 (EC50 = 178 μM)) is reported as ~ 90 fold. For the molecule `CC(C)C[C@H](NC(=O)Cn1ccc2ccccc21)C(=O)O` [Compound 12], the “NTSR1 stimulatory activity” value in test [4] was “abolished”. As to `CC(C)C[C@H](NC(=O)Cn1ccc2cc(-c3cccc4ccccc34)ccc21)C(=O)O` [Compound 17], the “NTSR1 stimulatory activity” value in test [4] was “abolished”. Besides, in test [1], the response was half-maximal at 3 µM (EC50) and the Emax came to 100%. In the case of `CC(C)C[C@H](NC(=O)Cn1ccc2cc(-c3cncc4ccccc34)ccc21)C(=O)O` [Compound 21], the “NTSR1 stimulatory activity” value in test [4] is reported as “abolished”.

As for `COC(=O)[C@H](CC(C)C)NC(=O)Cn1ccc2cc(-c3cnc4ccccc4c3)ccc21` [Compound 25], in test [1], the “NTSR1 activity (in words)” value is recorded as “loss of activity”.

As to `CC(C)C[C@@H](CO)NC(=O)Cn1ccc2cc(-c3cnc4ccccc4c3)ccc21` [Compound 26], in test [1], the “NTSR1 activity (in words)” value is given as “loss of activity”. Take `CC(C)C[C@H](NC(=O)Cn1ccc2cc(-c3cnc4ccccc4c3)ccc21)c1nn[nH]n1` [Compound 27]: the “NTSR1 stimulatory activity” value in test [4] is “abolished”.

Molecule `O=C(Cn1ccc2cc(-c3cnc4ccccc4c3)ccc21)N[C@@H](Cc1ccccc1)C(=O)O` [Compound 31] displayed a 50% effective concentration (EC50) in test [1] of 4 µM.

`CC(C)C[C@@H](NC(=O)Cn1ccc2cc(-c3cnc4ccccc4c3)ccc21)C(=O)O` [Compound 32]: the “NTSR1 activity (in words)” value in test [1] is given as “no activity”. On the same count and under the same terms, to `COC(=O)[C@H](CC(C)C)NC(=O)Cn1ccc2cc(-c3cccc4ccccc34)ccc21` [Compound 34] belongs “abolished activity”. Regarding `CC(C)C[C@H](NC(=O)Cn1ccc2ccc(-c3cnc4ccccc4c3)cc21)C(=O)O` [Compound 39], the “NTSR1 stimulatory activity” value in test [4] is “abolished”. `CC(C)C[C@H](NC(=O)Cn1ccc2ccc(-c3cccc4ccccc34)cc21)C(=O)O` [Compound 40]: the “NTSR1 stimulatory activity” value in test [4] was “abolished”.

What is called EC50 is the concentration giving half of the maximal effect. The Emax is the maximal effect, on the per cent scale that the assay sets.
